{"source": "ChEMBL document CHEMBL5034037", "about": "“Synthesis, Characterization, and Preclinical Evaluation of a Small-Molecule Prostate-Specific Membrane Antigen-Targeted Monomethyl Auristatin E Conjugate” (J Med Chem, 2021)", "key": {"Cathepsin B [1]": {"biological_target": "T1, Cathepsin B (Homo sapiens, UniProt P07858)", "test": "Stability of compound at pH 3.6 assessed as recombinant cathepsin B (unknown origin) mediated hydrolysis half life by HPLC-MS analysis", "assay_type": "ADME"}, "[2]": {"test": "AUC (0 to infinity) in Wistar rat at 1.5 mg/kg, iv", "assay_type": "ADME, organism-based", "parameters": "time infinity, route intravenous, dose 1.5 mg/kg", "conditions": "in vivo"}, "[3]": {"test": "Initial plasma concentration in Wistar rat plasma at 1.5 mg/kg, iv", "assay_type": "ADME, organism-based"}, "[4]": {"test": "Stability of compound in pH 7.4 assessed as hydrolysis measured within 96 hrs", "assay_type": "physicochemical", "conditions": "buffer, pH 7.4, 96 h"}, "[5]": {"test": "Acute toxicity in iv dosed ICR mouse assessed as maximum tolerated dose", "assay_type": "organism-based", "conditions": "in vivo, read-out: MNTD"}, "[6]": {"test": "Toxicity in rabbit assessed as morphological changes in liver at 81 to 122 microg/kg, iv", "assay_type": "tissue-based, Oryctolagus cuniculus", "conditions": "in vivo, dose 81-122 µg/kg"}, "[7]": {"test": "Toxicity in rat assessed as morphological changes in liver at 150 to 225 microg/kg, iv", "assay_type": "tissue-based", "conditions": "in vivo, dose 150-225 µg/kg"}, "[8]": {"test": "Chronic toxicity in rat assessed as change in acidity at […], iv administered once every 3 weeks for 3 months", "assay_type": "organism-based", "conditions": "in vivo, 504 h, dose lower 150 mg/kg"}, "[9]": {"test": "Toxicity in rabbit assessed as morphological changes in loops of colon at 81 to 122 microg/kg, iv", "assay_type": "tissue-based, Oryctolagus cuniculus", "conditions": "in vivo, dose 81-122 µg/kg"}, "[10]": {"test": "Toxicity in rabbit assessed as morphological changes in diameter of aorta at 81 to 122 microg/kg, iv", "assay_type": "tissue-based, Oryctolagus cuniculus", "conditions": "in vivo, dose 81-122 µg/kg"}, "[11]": {"test": "Toxicity in rat assessed as morphological changes in diameter of aorta at 150 to 225 microg/kg, iv", "assay_type": "tissue-based", "conditions": "in vivo, dose 150-225 µg/kg"}, "[12]": {"test": "Toxicity in rabbit assessed as morphological changes in gastric wall mucosa at 81 to 122 microg/kg, iv", "parameters": "species or system Oryctolagus cuniculus", "conditions": "in vivo, dose 81-122 µg/kg"}, "[13]": {"test": "Toxicity in rat assessed as morphological changes in mucosa of trachea at 150 to 225 microg/kg, iv", "assay_type": "tissue-based", "conditions": "in vivo, dose 150-225 µg/kg"}, "[14]": {"test": "Toxicity in rabbit assessed as morphological changes in capsule of the kidney at 81 to 122 microg/kg, iv", "assay_type": "tissue-based, Oryctolagus cuniculus", "conditions": "in vivo, dose 81-122 µg/kg"}, "[15]": {"test": "Toxicity in rabbit assessed as morphological changes in adrenal gland at 81 to 122 microg/kg, iv", "assay_type": "tissue-based, Oryctolagus cuniculus", "conditions": "in vivo, dose 81-122 µg/kg"}, "[16]": {"test": "Toxicity in rat assessed as morphological changes in heart at 150 to 225 microg/kg, iv", "assay_type": "tissue-based", "conditions": "in vivo, dose 150-225 µg/kg"}, "[17]": {"test": "Toxicity in rabbit assessed as morphological changes in lumen of trachea at 81 to 122 microg/kg, iv", "assay_type": "tissue-based, Oryctolagus cuniculus", "conditions": "in vivo, dose 81-122 µg/kg"}, "[18]": {"test": "Toxicity in rat assessed as morphological changes in urinary bladder at 150 to 225 microg/kg, iv", "conditions": "in vivo, dose 150-225 µg/kg"}, "CWR22R": {"test_system": "CWR22R", "test": "Antitumor activity against human 22Rv1 cells xenografted in mouse assessed as tumour growth inhibition at 0.3 mg/kg, ip daily treated for 5 days after 18 days of tumor implantation measured upto 10 days", "assay_type": "functional", "conditions": "22Rv1, ip, 120 h, time 5 day, read-out: TGI"}, "[19]": {"test": "Antitumor activity against human 22Rv1 cells xenografted in mouse assessed as tumour growth inhibition at 10 mg/kg,ip daily treated for 5 days after 18 days of tumor implantation measured upto 10 days", "assay_type": "functional, CWR22R", "conditions": "22Rv1, ip, 120 h, time 5 day, read-out: TGI"}, "[20]": {"test": "Antitumor activity against human 22Rv1 cells xenografted in mouse assessed as tumour growth inhibition at 0.3 mg/kg, ip daily treated for 5 days after 18 days of tumor implantation measured upto 15 days", "assay_type": "functional, CWR22R", "conditions": "22Rv1, ip, 120 h, time 5 day, read-out: TGI"}, "[21]": {"test": "Elimination rate constant in rabbit at 0.81 mg/kg, iv", "assay_type": "ADME, organism-based, Oryctolagus cuniculus", "conditions": "in vivo"}, "Cytochrome P450 1A2": {"biological_target": "T2, Cytochrome P450 1A2 (Homo sapiens, UniProt P05177)", "T2 sequence (P05177 whole entry)": "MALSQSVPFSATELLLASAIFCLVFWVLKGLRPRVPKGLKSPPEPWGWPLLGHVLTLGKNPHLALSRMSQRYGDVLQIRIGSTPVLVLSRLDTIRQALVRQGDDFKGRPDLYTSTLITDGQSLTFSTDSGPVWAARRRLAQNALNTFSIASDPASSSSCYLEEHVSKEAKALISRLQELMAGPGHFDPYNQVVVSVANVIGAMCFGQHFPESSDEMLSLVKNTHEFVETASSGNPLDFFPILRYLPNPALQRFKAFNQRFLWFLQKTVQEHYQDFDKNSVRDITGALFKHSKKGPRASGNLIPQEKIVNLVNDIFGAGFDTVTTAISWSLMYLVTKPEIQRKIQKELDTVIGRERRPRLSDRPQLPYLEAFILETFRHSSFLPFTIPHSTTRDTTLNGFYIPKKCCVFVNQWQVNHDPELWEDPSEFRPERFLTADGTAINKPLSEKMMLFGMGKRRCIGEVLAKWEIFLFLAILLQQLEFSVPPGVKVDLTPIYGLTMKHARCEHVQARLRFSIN", "test": "Inhibition of CYP1A2 in human liver microsome using phenacetin as substrate", "assay_type": "ADME, microsomes"}, "Cytochrome P450 2C19": {"biological_target": "Cytochrome P450 2C19 (Homo sapiens, UniProt P33261)", "sequence (P33261 whole entry)": "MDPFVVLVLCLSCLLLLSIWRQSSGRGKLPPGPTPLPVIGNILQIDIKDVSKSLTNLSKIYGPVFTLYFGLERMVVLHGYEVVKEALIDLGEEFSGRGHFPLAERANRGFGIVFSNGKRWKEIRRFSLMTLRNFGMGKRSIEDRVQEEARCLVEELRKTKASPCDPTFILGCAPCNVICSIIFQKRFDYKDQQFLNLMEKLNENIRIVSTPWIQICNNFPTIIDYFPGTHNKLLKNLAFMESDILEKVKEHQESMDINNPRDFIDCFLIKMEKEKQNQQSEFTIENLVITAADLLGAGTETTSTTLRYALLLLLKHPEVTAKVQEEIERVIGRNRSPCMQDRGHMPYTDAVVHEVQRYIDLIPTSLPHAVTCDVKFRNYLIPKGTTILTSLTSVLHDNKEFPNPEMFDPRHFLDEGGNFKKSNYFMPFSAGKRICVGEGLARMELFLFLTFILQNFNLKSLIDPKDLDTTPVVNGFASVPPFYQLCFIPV", "test": "Inhibition of CYP2C19 in human liver microsome using mephenytoin as substrate", "assay_type": "ADME, microsomes"}, "Cytochrome P450 2B6": {"biological_target": "T3, Cytochrome P450 2B6 (Homo sapiens, UniProt P20813)", "T3 sequence (P20813 whole entry)": "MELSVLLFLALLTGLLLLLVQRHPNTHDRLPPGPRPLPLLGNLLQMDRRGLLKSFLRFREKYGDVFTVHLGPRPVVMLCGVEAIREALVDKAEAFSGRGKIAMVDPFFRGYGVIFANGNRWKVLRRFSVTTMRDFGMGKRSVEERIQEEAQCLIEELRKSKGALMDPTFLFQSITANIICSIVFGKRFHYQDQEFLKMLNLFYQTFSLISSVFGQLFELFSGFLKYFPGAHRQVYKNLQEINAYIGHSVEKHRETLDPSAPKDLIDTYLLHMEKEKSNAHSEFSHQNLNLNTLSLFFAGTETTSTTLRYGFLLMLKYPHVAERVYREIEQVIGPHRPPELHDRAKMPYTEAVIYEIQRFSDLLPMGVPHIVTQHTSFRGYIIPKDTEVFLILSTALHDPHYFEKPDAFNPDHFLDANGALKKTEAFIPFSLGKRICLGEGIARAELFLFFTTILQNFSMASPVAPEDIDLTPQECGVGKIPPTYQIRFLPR", "test": "Drug metabolism assessed as human liver microsome CYP2B6-mediatd metabolism", "assay_type": "ADME", "conditions": "microsomes"}, "Salmonella typhimurium [22]": {"test_system": "Salmonella typhimurium", "test": "Mutagenecity in Salmonella typhimurium TA100 in presence of metabolic activation system at 10 ug/ml by Ames test", "assay_type": "toxicity, organism-based", "conditions": "salmonella enterica subsp. enterica serovar typhimurium; dose 10 µg/ml"}, "Salmonella typhimurium [23]": {"test_system": "Salmonella typhimurium", "test": "Mutagenecity in Salmonella typhimurium TA100 in presence of metabolic activation system at 100 ug/ml by Ames test", "assay_type": "toxicity, organism-based", "conditions": "salmonella enterica subsp. enterica serovar typhimurium; dose 100 µg/ml"}, "Salmonella typhimurium [24]": {"test_system": "Salmonella typhimurium", "test": "Mutagenecity in Salmonella typhimurium TA98 without metabolic activation system at 10000 ug/ml by Ames test", "assay_type": "toxicity, organism-based", "conditions": "salmonella enterica subsp. enterica serovar typhimurium; dose 10000 µg/ml"}, "Salmonella typhimurium [25]": {"test_system": "Salmonella typhimurium", "test": "Mutagenecity in Salmonella typhimurium TA100 without metabolic activation system at 10 ug/ml by Ames test", "assay_type": "toxicity, organism-based", "conditions": "salmonella enterica subsp. enterica serovar typhimurium; dose 10 µg/ml"}, "Salmonella typhimurium [26]": {"test_system": "Salmonella typhimurium", "test": "Mutagenecity in Salmonella typhimurium TA100 without metabolic activation system at 1 ug/ml by Ames test", "assay_type": "toxicity, organism-based", "conditions": "salmonella enterica subsp. enterica serovar typhimurium; dose 1 µg/ml"}, "Cathepsin B [27]": {"biological_target": "T1, Cathepsin B", "test": "Stability of compound assessed as recombinant cathepsin B (unknown origin) mediated hydrolysis", "assay_type": "ADME"}}, "note": "*1 amine or outer side, *2 acyl side, *3 side chain or, on linkers, in order; H or OH if unused. Where a SMILES comes first, the peptide text is derived from it. [ ]: non-standard residue; d: D form. The star is where a group is joined. GluureaLys(ε-3-ClBenzyl) = O=C(O)CC[C@H](NC(=O)N[C@@H](CCCCN(Cc1cccc(Cl)c1)*)C(=O)O)C(=O)O; Dolaproine = CO[C@@H]([C@@H]1CCCN1)[C@@H](C)C(=O)O; Dil = CC[C@H](C)[C@H](NC)[C@@H](CC(=O)O)OC; X1 = O=C(CCCc1cn(CCCN[*:1])nn1)[*:2]; PABC = O=C(OCc1ccc(N[*:1])cc1)[*:2]; X2 = C[C@@H](N*)[C@@H](O)c1ccccc1; Cit = NC(=O)NCCC[C@H](N)C(=O)O; Suc = O=C(CCC(=O)[*:2])[*:1]; NMeV = CN[C@H](C(=O)O)C(C)C; Ahx = NCCCCCC(=O)O"}
{"molecule": "CC[C@H](C)[C@@H]([C@@H](CC(=O)N1CCC[C@H]1[C@H](OC)[C@@H](C)C(=O)N[C@H](C)[C@@H](O)c1ccccc1)OC)N(C)C(=O)[C@@H](NC(=O)[C@H](C(C)C)N(C)C(=O)OCc1ccc(NC(=O)[C@H](CCCNC(N)=O)NC(=O)[C@@H](NC(=O)CCCc2cn(CCCNC(=O)[C@H](Cc3ccc(O)cc3)NC(=O)[C@H](Cc3ccccc3)NC(=O)CCC(=O)NCCCCCC(=O)N(CCCC[C@H](NC(=O)N[C@@H](CCC(=O)O)C(=O)O)C(=O)O)Cc3cccc(Cl)c3)nn2)C(C)C)cc1)C(C)C", "note": "({GluureaLys(ε-3-ClBenzyl)-Ahx-Suc}-FY[X1]V[Cit][PABC][NMeV]V[Dil][Dolaproine]-X2)", "values": [{"measurement": "half-life", "setting": "Cathepsin B [1]", "value": 25, "unit": "min"}, {"measurement": "AUC(0-inf)", "setting": "[2]", "value": 88000, "unit": "ng·h/mL"}, {"measurement": "C0", "setting": "[3]", "value": 31000, "unit": "ng/mL"}, {"measurement": "Stability", "setting": "[4]", "value": "Stable"}, {"measurement": "MTD", "setting": "[5]", "value": 3, "unit": "mg/kg"}, {"measurement": "Activity", "setting": "[6]", "value": "Non-Toxic"}, {"measurement": "Activity", "setting": "[7]", "value": "Non-Toxic"}, {"measurement": "Activity", "setting": "[8]", "value": "Toxic"}, {"measurement": "Activity", "setting": "[9]", "value": "Non-Toxic"}, {"measurement": "Activity", "setting": "[10]", "value": "Non-Toxic"}, {"measurement": "Activity", "setting": "[11]", "value": "Non-Toxic"}, {"measurement": "Activity", "setting": "[12]", "value": "Non-Toxic"}, {"measurement": "Activity", "setting": "[13]", "value": "Non-Toxic"}, {"measurement": "Activity", "setting": "[14]", "value": "Non-Toxic"}, {"measurement": "Activity", "setting": "[15]", "value": "Non-Toxic"}, {"measurement": "Activity", "setting": "[16]", "value": "Non-Toxic"}, {"measurement": "Activity", "setting": "[17]", "value": "Non-Toxic"}, {"measurement": "Activity", "setting": "[18]", "value": "Non-Toxic"}, {"measurement": "inhibition in vivo at 0.3 mg/kg", "setting": "CWR22R", "value": 70, "unit": "%"}, {"measurement": "inhibition in vivo at 10 mg/kg", "setting": "[19]", "value": 84, "unit": "%"}, {"measurement": "inhibition in vivo at 0.3 mg/kg", "setting": "[20]", "value": 77.4, "unit": "%"}, {"measurement": "k el", "setting": "[21]", "value": "4.72e-05", "unit": "s⁻¹"}, {"measurement": "IC50", "setting": "Cytochrome P450 1A2", "value": "> 25", "unit": "µM"}, {"measurement": "IC50", "setting": "Cytochrome P450 2C19", "value": "> 25", "unit": "µM"}, {"measurement": "Drug metabolism", "setting": "Cytochrome P450 2B6", "value": "Metabolite_Notdetected"}, {"measurement": "Activity", "setting": "Salmonella typhimurium [22]", "value": "Non-Toxic"}, {"measurement": "Activity", "setting": "Salmonella typhimurium [23]", "value": "Non-Toxic"}, {"measurement": "Activity", "setting": "Salmonella typhimurium [24]", "value": "Non-Toxic"}, {"measurement": "Activity", "setting": "Salmonella typhimurium [25]", "value": "Non-Toxic"}, {"measurement": "Activity", "setting": "Salmonella typhimurium [26]", "value": "Non-Toxic"}, {"measurement": "Stability", "setting": "Cathepsin B [27]", "value": "Stable"}]}
